Several values for one entry are separate records, joined by “and”; a condition that tells them apart may be missing. Equal entries are not always repeated.
Columns and labels:
mice [1] = experiment: in vivo; settings: dead animals after 24 h
Procedure: (§1) Adverse neurotoxic (muscle relaxant) effects of compounds were studied at doses of 50 to 500 mg/kg when administered intraperitoneally, as well as reference drugs in effect at anticonvulsant doses. Myorelaxation was investigated with the test of a “rotating rod” in mice. To this end, mice were planted on a metal rod with a corrugated rubber coating, which rotated at a speed of 5 revolutions per minute. The number of animals that cnot stay on it for 2 min was determined. To determine the ED50, neurotoxic TD50, and LD50, the statistical method of penetration by Litchfield and Wilcoxon was used.

mice [2] = experiment: Forced swimming test; settings: 50 mg/kg, 6 min; for Total Time of Immobilization: control 42.0 ± 7.24; for Total Time of Active Swimming: control 318.0 ± 8.36;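 for all read-outs here: mice made to swim in a water-filled glass vessel under natural light, with durations of active swimming and immobility recorded across the 6 min session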
Procedure: Forced swimming test. To assess “despair and depression”, the “compelling swimming” model was used. Experimental animals were forced to swim in a glass container (height 22 cm, diameter 14 cm), filled 1/3 with water. […] The latent period of immobilization, the total duration of active swimming and immobilization are fixed at 6 min (the experiments were conducted under natural light).

[3] = tested on: pentylenetetrazole (PTZ)-induced convulsions; experiment: Antagonism to pentylenetetrazole (PTZ) convulsions; type: in vivo; settings: for ED50 (by PTZ antagonism): mice, i.p. 45 min before PTZ 90 mg/kg s.c., confidence limits in brackets, p = 0.05; for TI: therapeutic index TI = LD50/ED50
Procedure: (§2) The study of the anticonvulsant activity of hybrids 7a–u was assessed by evaluating the antagonism to pentylenetetrazole (PTZ), thiosemicarbazide convulsive seizures, and maximal electroshock-induced seizures (MES). The PTZ-induced test is considered an experimental model for the clonic component of epilepsy seizures and the prognostic anxiolytic activity of the compounds. PTZ is a common convulsive agent used in animal models to investigate the mechanisms of seizures. The model of thiosemicarbazide (TSC) seizures (affecting the exchange of GABA) causes clonic seizures similar to pentylenetetrazole ones. The MES test is used as an animal model for the generalization of tonic seizures in epilepsy. The neurotoxicity and side effects of the compounds (movement coordination disorder, myorelaxation, and ataxia) were also studied on mice with the “rotating rod”[29] test.
The anticonvulsant effect of the newly synthesized compounds was investigated by tests comprising pentylenetetrazole, thiosemicarbazide convulsions, and maximal electroshock (MES). Outbred mice (weight 18–22 g) were used for the study. […] Each animal is placed into an individual plastic cage for observation lasting 1 h. Seizures and clonic convulsions were recorded. […] The control animals were administered as an emulsifier. Every dose of each test compound was studied in six animals.
as §1

mice [4] = experiment: Rotating rod test (neurotoxicity, myorelaxation); type: in vivo; settings: i.p., myorelaxation in 50% of animals
Procedure: as §2, §1

mouse = experiment: Elevated plus maze (EPM) test; type: in vivo; settings: 50 mg/kg i.p., 5 min; for Number of Entries into the Closed Arms: control 9.4 ± 1.6; for Time Spent in the Center: control 28.2 ± 3.12; for Time Spent in Closed Arms: control 269.2 ± 10.4
From the text: Elevated plus maze—EPM test. Anti-anxiety and sedative effects were studied on mouse a model of the “elevated plus maze”. The labyrinth is a cruciform machine raised above the floor, with a pair of open and closed sleeves opposed to each other. Normal animals prefer to spend most of their time in the closed (dark) sleeves of the labyrinth. The anxiolytic effect of the compounds was estimated by the increase in the number of entries into open (light) sleeves and the time spent in them without increasing the total motor activity. This records the time spent in the closed sleeve and the number of attempts to enter the installation center. In the above model, the test compounds and the reference drug were injected intraperitoneally before the experiments. The control animals were administered as an emulsifier. Results were processed statistically (p < 0.05).

rats [5] = experiment: Electroshock retrograde amnesia, conditioned response of passive avoidance (CRPA); type: in vivo; settings: 50 mg/kg, study for 5 min; for The Time Spent in the Light Chamber during the Training of the CRPA, First Day: control 280.0 ± 7.5; for The Time Spent in the Light Chamber When Playing CRPA + MESH after 24 h, Second Day: control 281.0 ± 6.1
Procedure: Test for learning and memory. The antiamnesic properties of the compounds were studied using an electroshock amnesia model modified by J. Bures, O. Buresova. In rats, a conditioned passive avoidance reaction (CRPA) to a dark-light setting was developed, while the training of the animals with CRPA was recorded. The residence times in the light and dark compartments were recorded for 5 min (300 s). Then, in the dark compartment, the animal received a single current shock (0.4 mA) through the electrode floor (training). To obtain amnesia, a maximum electroconvulsive seizure is induced in animals (conducting a maximum electric current of 50 Hz for 0.2 s through corneal electrodes). Conducting an electric shock immediately after training causes the erasure of the memory trace. The test for reproduction is carried out 24 h after training—after the development of CRPA. During this period, the control animals forget the training and prefer to be in the dark part of the chamber. An increase in the time spent by rats in the light compartment compared to the control on the second day indicates the presence of antiamnestic properties of the compounds.

[6] = tested on: thiosemicarbazide (TSC)-induced convulsions; experiment: Thiosemicarbazide (TSC) seizures; type: in vivo, mice; settings: mice; for Latency of Convulsions, Induced by TSC, M ± M: compound 100 mg/kg i.p. 45 min before TSC 18 mg/kg s.c.; for Latency of Convulsions, Induced by TSC, I (index of latent period of TSC seizures): compound 100 mg/kg i.p., relative to control = 1.0
Procedure: as §2
Thiosemicarbazide, an antimetabolite of GABA inhibitor (glutamic acid decarboxylase) in the brain, is administered subcutaneously to mice at a dose of 18 mg/kg as a 0.5% solution, which causes clonic convulsions in animals. Anti-thiosemicarbazide activity was evaluated based on the latency time of the onset of seizures. Compounds were administered intraperitoneally at doses of 100 mg/kg in suspension with carboxymethylcellulose and Tween-80 45 min before administration of thiosemicarbazide.

rats [7] = experiment: Open field test; type: in vivo; settings: 50 mg/kg i.p.; for Cells Examination, amount (absolute data during 5 min): control 2.4 ± 0.67; for Vertical Displacement, amount (absolute data during 5 min): control 7.0 ± 2.14; for Horizontal Displacement, amount (absolute data during 5 min): control 21.6 ± 2.25
Procedure: Open field test. The research-motor behavior of rats was studied on a modified “open field” model. For this purpose, an installation was used, the bottom of which is divided into squares with holes (cells). Experiments were performed in the daytime with natural light. Within 5 min of the experiment, the indicators of sedative and activating behavior were determined, namely the number of horizontal movements, standing on the hind legs (vertical movements), and sniffing of the cells. The number of animals on this model was eight for each compound, control, and reference drug.

| Substance | LD50 (mice [1]) | Total Time of Immobilization (mice [2]) [s] | Total Time of Active Swimming (mice [2]) [s] | ED50 (by PTZ antagonism) [3] | TI [3] | TD50 (mice [4]) [mg/kg] | Time Spent in the Open Arms (mouse; control 2.6 ± 1.6, 50 mg/kg) | Number of Entries into the Closed Arms (mouse) | Time Spent in the Center (mouse) [s] | Time Spent in Closed Arms (mouse) [s] | The Time Spent in the Light Chamber during the Training of the CRPA, First Day (rats [5]) [s] | The Time Spent in the Light Chamber When Playing CRPA + MESH after 24 h, Second Day (rats [5]) [s] | Latency of Convulsions, Induced by TSC, M ± M [6] [min] | Latency of Convulsions, Induced by TSC, I (index of latent period of TSC seizures) [6] | Cells Examination, amount (absolute data during 5 min) (rats [7]) | Vertical Displacement, amount (absolute data during 5 min) (rats [7]) | Horizontal Displacement, amount (absolute data during 5 min) (rats [7]) | Time Spent in the Open Arms (mouse; control 2.6 ± 1.6) [s] |
| --- | --- | --- | --- | --- | --- | --- | --- | --- | --- | --- | --- | --- | --- | --- | --- | --- | --- | --- |
| 6-{4-[(4-{[(4-Cyano-1-isopropyl-5,6,7,8-tetrahydroisoquinolin-3-yl)oxy]methyl}-1H-1,2,3-triazol-1-yl)acetyl]piperazin-1-yl}-1,3,3-trimethyl-3,4-dihydro-1H-pyrano [3,4-c]pyridine-5-carbonitrile [7g] | 680 (571 ÷ 809) mg/kg | 3.0 ± 0.6 | 357.0 ± 13.5 | 18 (10.6 ÷ 30.6) mg/kg | 37.8 | >500 | 6.6 s and 6.6 ± 2.3 s | 6.0 ± 1.67 | 53.4 ± 3.53 | 237.8 ± 12.5 | 283.0 ± 5.2 | 297.0 ± 7.2 | 28.4 ± 0.67 | 2.84 | 10.0 ± 3.56 | 9.0 ± 2.34 | 49.0 ± 7.16 |  |
| 6-{4-[(4-{[(5-Cyano-3,3,8-trimethyl-3,4-dihydro-1H-pyrano [3,4-c]pyridin-6-yl)oxy]methyl}-1H-1,2,3-triazol-1-yl)acetyl]piperazin-1-yl}-1-ethyl-3,3-dimethyl-3,4-dihydro-1H-pyrano [3,4-c]pyridine-5-carbonitrile [7n] | 820 (689 ÷ 976) mg/kg | 42.0 ± 12.04 | 324.0 ± 22.4 | 26 (18.6 ÷ 36.4) mg/kg | 31.5 | >500 |  | 1.4 ± 1.2 | 82.0 ± 15.2 | 204.0 ± 14.2 | 283.0 ± 7.1 | 297.0 ± 6.8 | 41.2 ± 1.61 | 4.12 | 3.0 ± 0.89 | 11.6 ± 2.5 | 52.2 ± 12.2 | 12.0 ± 1.4 |
| 6-{4-[(4-{[(4-Cyano-1-methyl-5,6,7,8-tetrahydroisoquinolin-3-yl)oxy]methyl}-1H-1,2,3-triazol-1-yl)acetyl]piperazin-1-yl}-3,3-dimethyl-1-propyl-3,4-dihydro-1H-pyrano [3,4-c]pyridine-5-carbonitrile [7f] | 810 (686 ÷ 956) mg/kg | 66.0 ± 4.48 | 296.0 ± 16.85 | 28 (22.2 ÷ 35.3) mg/kg | 28.9 | >500 |  | 3.0 ± 0.89 | 22.0 ± 6.32 | 264.0 ± 13.48 |  |  | 40.6 ± 1.11 | 4.06 | 3.2 ± 1.03 | 10.8 ± 3.67 | 39.2 ± 4.92 | 16.0 ± 2.09 |
| 6-{4-[(4-{[(5-Cyano-3,3-dimethyl-8-propyl-3,4-dihydro-1H-pyrano [3,4-c]pyridin-6-yl)oxy]methyl}-1H-1,2,3-triazol-1-yl)acetyl]piperazin-1-yl}-1-ethyl-3,3-dimethyl-3,4-dihydro-1H-pyrano [3,4-c]pyridine-5-carbonitrile [7t] | 768 (640 ÷ 922) mg/kg | 62.0 ± 6.77 | 298.0 ± 16.64 | 30 (24.2 ÷ 42) mg/kg | 25.6 | >500 |  | 1.6 ± 0.67 | 9.0 ± 2.2 | 268.0 ± 5.56 |  |  | 43.8 ± 4.34 | 4.38 | 2.6 ± 0.79 | 10.6 ± 3.84 | 46.0 ± 7.37 | 23.0 ± 5.51 |

— article PMC9920413, “New Bicyclic Pyridine-Based Hybrids Linked to the 1,2,3-Triazole Unit: Synthesis via Click Reaction and Evaluation of Neurotropic Activity and Molecular Docking” (Molecules, 2023)
